Test results reported in ChEMBL document CHEMBL4219030, “Progress in the discovery of small molecule modulators of the Cys-loop superfamily receptors” (Bioorg Med Chem Lett, 2017).

Key:
[1] = molecular target: T1, Glycine receptor subunit alpha-1 (Homo sapiens, UniProt P23415); experiment: Positive allosteric modulation of human glycine alpha1 receptor expressed in HEK293T cells assessed as glycine-induced increase incurrent response after 18 to 24 hrs by membrane potential blue dye based FLIPR assay; type: cell-based
T1 sequence (P23415 whole entry): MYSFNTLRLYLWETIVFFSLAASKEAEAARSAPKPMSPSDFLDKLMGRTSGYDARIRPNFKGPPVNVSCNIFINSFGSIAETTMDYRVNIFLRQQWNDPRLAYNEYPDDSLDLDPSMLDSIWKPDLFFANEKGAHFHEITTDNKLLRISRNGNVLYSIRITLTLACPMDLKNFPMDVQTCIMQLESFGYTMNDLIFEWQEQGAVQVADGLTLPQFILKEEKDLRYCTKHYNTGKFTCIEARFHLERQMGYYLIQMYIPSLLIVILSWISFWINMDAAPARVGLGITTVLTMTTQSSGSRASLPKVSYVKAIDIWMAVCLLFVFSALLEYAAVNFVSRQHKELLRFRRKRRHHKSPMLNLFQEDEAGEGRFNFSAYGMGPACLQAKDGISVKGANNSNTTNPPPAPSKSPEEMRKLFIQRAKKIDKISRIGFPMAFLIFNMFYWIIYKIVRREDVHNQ

[2] = molecular target: Glycine receptor (alpha-1/beta) (Homo sapiens, UniProt P23415+P48167); experiment: Positive allosteric modulation of human glycine alpha1beta receptor expressed in HEK293T cells assessed as glycine-induced increase in current response after 18 to 24 hrs by membrane potential blue dye based FLIPR assay; type: cell-based
[3] = molecular target: T2, Glycine receptor alpha-3/beta (Homo sapiens, UniProt O75311+P48167); experiment: Positive allosteric modulation of human glycine alpha3beta receptor expressed in HEK293T cells assessed as glycine-induced increase in current response after 18 to 24 hrs by membrane potential blue dye based FLIPR assay; type: cell-based
[4] = molecular target: T2, Glycine receptor alpha-3/beta; experiment: Positive allosteric modulation of human glycine alpha3beta receptor expressed in HEK293T cells assessed as potentiation of glycine-induced increase in current response after 18 to 24 hrs by membrane potential blue dye based FLIPR assay relative to glycine; type: cell-based
[5] = molecular target: T3, Neuronal acetylcholine receptor; alpha4/beta2 (Homo sapiens, UniProt P17787+P43681); experiment: Agonist activity at alpha4beta2 nAChR (unknown origin); type: protein-complex assay
[6] = molecular target: T3, Neuronal acetylcholine receptor; alpha4/beta2; experiment: Inhibition of alpha4beta2 nAChR (unknown origin); type: protein-complex assay
[7] = molecular target: T4, 5-hydroxytryptamine receptor 3A (Homo sapiens, UniProt P46098); experiment: Agonist activity at 5-HT3 receptor (unknown origin)
T4 sequence (P46098 whole entry): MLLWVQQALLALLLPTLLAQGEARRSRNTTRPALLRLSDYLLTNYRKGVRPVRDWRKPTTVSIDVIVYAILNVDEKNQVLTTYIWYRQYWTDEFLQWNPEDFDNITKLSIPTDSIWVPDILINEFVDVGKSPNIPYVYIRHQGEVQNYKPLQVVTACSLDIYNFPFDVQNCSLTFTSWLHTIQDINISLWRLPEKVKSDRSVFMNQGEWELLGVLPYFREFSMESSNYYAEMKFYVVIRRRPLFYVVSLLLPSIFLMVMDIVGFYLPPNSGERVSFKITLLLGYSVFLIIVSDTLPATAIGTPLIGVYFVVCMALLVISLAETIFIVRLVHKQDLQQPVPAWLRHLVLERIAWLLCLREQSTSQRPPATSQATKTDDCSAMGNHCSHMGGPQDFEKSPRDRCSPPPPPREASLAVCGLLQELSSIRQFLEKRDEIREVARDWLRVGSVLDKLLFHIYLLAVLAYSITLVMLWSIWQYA

[8] = molecular target: T4, 5-hydroxytryptamine receptor 3A; experiment: Inhibition of 5-HT3 receptor (unknown origin)
[9] = molecular target: Gamma-aminobutyric acid receptor subunit alpha-1/beta-2/gamma-2 (Mus musculus, UniProt P22723+P62812+P63137); experiment: Positive allosteric modulation of C57BL/6 mouse GABAA receptor alpha1beta2gamma2 assessed as increase in GABA-induced current response at -60 mV holding potential by whole cell patch-clamp method relative to GABA; type: protein-complex assay
[10] = molecular target: T5, Gamma-aminobutyric acid receptor subunit alpha-1/beta-3/gamma-2 (Mus musculus, UniProt P22723+P62812+P63080); experiment: Positive allosteric modulation of C57BL/6 mouse GABAA receptor alpha1beta3gamma2 assessed as increase in GABA-induced current response at -60 mV holding potential by whole cell patch-clamp method relative to GABA; type: protein-complex assay
[11] = molecular target: T5, Gamma-aminobutyric acid receptor subunit alpha-1/beta-3/gamma-2; experiment: Inhibition of C57BL/6 mouse GABAA receptor alpha1beta3gamma2; type: protein-complex assay

T3 sequence (P17787 whole entry): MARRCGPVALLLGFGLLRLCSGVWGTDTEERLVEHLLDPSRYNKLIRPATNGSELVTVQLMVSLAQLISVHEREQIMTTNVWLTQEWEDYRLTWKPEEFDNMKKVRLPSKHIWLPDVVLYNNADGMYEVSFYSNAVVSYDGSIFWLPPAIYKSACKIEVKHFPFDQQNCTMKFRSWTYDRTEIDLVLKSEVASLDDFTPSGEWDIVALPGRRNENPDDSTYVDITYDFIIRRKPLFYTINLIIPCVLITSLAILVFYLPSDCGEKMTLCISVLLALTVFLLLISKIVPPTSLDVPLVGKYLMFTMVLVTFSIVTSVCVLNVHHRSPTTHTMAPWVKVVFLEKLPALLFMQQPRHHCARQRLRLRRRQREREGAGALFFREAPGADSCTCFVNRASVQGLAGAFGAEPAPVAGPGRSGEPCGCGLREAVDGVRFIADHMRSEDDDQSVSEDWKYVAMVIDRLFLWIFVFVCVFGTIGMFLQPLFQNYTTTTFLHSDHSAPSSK
T3 sequence (P43681 whole entry): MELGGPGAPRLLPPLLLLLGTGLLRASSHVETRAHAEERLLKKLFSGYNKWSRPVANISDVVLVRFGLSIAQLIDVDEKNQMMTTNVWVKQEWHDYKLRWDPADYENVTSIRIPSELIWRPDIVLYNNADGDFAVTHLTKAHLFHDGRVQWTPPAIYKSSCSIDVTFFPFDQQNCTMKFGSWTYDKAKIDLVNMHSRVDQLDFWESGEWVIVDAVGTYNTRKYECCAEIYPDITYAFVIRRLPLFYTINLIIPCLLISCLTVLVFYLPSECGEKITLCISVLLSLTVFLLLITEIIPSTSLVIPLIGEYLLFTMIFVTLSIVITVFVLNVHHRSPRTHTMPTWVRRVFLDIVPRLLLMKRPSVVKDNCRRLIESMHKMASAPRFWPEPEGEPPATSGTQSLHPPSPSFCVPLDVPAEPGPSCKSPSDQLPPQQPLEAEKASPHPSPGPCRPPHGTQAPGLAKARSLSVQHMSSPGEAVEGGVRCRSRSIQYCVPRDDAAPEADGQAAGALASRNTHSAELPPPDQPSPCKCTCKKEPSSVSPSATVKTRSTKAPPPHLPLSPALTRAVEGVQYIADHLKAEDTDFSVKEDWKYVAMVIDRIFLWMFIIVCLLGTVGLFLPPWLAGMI
T5 sequence (P22723 whole entry): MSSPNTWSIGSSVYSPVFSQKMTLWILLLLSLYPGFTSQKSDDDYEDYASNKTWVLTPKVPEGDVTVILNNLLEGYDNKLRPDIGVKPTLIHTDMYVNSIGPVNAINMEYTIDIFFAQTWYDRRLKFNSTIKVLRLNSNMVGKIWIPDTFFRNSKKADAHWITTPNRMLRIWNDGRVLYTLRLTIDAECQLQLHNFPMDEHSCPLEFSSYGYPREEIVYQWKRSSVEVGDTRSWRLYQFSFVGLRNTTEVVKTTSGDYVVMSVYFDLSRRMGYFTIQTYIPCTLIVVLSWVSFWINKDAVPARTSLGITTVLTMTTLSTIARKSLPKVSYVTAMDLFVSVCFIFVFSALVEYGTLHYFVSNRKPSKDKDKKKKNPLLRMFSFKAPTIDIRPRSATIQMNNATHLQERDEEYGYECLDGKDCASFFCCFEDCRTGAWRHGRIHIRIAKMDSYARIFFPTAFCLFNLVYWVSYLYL
T5 sequence (P62812 whole entry): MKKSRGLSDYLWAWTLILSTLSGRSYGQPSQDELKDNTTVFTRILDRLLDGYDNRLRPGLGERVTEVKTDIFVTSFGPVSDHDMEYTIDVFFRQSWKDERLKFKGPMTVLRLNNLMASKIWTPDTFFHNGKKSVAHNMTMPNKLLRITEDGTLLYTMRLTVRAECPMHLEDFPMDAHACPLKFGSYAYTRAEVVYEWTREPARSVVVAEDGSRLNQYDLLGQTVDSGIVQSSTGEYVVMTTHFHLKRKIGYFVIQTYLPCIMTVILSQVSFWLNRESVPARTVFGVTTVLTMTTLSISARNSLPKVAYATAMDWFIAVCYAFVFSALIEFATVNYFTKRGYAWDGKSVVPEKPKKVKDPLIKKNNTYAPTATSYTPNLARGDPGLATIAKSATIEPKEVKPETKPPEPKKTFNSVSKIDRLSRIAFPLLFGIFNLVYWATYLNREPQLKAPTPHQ
T5 sequence (P63080 whole entry): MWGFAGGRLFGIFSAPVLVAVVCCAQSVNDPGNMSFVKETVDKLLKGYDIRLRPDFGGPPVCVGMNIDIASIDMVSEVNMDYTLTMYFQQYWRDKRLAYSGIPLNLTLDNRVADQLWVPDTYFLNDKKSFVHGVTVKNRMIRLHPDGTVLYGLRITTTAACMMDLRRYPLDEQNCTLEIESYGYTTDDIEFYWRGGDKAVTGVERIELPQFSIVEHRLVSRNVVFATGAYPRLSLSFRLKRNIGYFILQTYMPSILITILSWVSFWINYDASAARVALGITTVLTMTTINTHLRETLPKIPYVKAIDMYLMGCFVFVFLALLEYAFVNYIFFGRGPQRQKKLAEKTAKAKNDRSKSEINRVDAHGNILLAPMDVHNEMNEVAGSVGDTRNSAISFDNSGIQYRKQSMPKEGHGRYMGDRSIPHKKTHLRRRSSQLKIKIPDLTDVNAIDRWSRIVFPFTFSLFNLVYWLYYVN
T2 sequence (O75311 whole entry): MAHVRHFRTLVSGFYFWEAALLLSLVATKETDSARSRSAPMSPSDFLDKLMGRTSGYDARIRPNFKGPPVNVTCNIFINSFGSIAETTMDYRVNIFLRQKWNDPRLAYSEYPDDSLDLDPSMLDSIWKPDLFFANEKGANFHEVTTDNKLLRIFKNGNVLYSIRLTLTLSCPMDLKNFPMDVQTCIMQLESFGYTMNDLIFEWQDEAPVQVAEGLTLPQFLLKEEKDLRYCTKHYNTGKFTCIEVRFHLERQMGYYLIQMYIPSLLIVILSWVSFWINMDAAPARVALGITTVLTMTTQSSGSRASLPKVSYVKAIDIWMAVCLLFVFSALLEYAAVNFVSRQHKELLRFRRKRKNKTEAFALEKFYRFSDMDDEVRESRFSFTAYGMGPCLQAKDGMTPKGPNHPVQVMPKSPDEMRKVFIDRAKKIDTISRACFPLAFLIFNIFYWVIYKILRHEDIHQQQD
T2 sequence (P48167 whole entry): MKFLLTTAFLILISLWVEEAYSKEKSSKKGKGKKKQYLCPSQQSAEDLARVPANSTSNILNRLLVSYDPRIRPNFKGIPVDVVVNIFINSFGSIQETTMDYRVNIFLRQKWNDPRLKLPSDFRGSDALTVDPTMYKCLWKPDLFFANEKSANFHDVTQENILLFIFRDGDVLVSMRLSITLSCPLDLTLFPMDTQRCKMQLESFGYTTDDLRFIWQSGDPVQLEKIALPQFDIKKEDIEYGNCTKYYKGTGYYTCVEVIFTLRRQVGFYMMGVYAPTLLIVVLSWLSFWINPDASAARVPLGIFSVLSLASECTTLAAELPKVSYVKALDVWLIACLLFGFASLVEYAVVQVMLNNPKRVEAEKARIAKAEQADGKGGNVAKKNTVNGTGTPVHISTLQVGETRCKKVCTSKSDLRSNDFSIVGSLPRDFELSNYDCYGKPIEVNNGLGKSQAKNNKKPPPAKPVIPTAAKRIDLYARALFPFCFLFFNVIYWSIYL
Sequence of Glycine receptor (alpha-1/beta) (P48167 whole entry, one chain of several): as the sequence (P48167 whole entry) above
Sequence of Gamma-aminobutyric acid receptor subunit alpha-1/beta-2/gamma-2 (P22723 whole entry): as the sequence (P22723 whole entry) above
Sequence of Gamma-aminobutyric acid receptor subunit alpha-1/beta-2/gamma-2 (P62812 whole entry): as the sequence (P62812 whole entry) above
Sequence of Gamma-aminobutyric acid receptor subunit alpha-1/beta-2/gamma-2 (P63137 whole entry): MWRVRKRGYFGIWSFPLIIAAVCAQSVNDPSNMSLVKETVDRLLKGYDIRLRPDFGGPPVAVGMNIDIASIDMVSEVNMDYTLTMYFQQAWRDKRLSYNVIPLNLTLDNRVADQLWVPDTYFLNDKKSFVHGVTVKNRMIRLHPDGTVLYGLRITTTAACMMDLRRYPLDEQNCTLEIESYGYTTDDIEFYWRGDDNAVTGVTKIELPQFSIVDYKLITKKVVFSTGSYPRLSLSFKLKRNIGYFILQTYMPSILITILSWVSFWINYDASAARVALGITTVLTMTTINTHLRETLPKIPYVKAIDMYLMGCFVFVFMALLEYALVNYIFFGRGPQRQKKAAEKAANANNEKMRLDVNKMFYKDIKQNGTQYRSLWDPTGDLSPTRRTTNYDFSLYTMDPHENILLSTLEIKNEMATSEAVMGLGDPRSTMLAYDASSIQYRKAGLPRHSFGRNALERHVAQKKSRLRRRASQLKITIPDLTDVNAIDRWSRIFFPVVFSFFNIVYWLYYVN

C[C@H]1[C@H]2C(=O)N(C)c3ccncc3[C@H]2CN1S(=O)(=O)c1ccc2c(c1)OCO2
EC50 [1]: 0.032 µM
EC50 [2]: 0.016 µM
EC50 [3]: 0.066 µM
fold change (FC) [4]: 11
EC50 [5]: > 25 µM
IC50 [6]: > 25 µM
EC50 [7]: > 25 µM
IC50 [8]: > 30 µM
EC50 [9]: > 50 µM
EC50 [10]: > 30 µM
IC50 [11]: > 30 µM
